Results on three molecules are retold here after patent US20220323795A1, “COMBINATION OF CICLOPIROXOLAMINE AND PIROCTONE OLAMINE FOR COMBATING DANDRUFF” (PIERRE FABRE DERMO-COSMETIQUE, priority 2019, published 2022).

For orientation: MIC means the lowest concentration that inhibits growth of the organism. The MFC is the smallest concentration meeting the test's criterion for killing the fungus.

Like-named read-outs stand apart in the source and are kept apart here.

The subject of experiment [1] is M. globosa (IP2387.96). In words: Minimum inhibitory concentration (MIC) by micromethod in liquid medium. The following applies: product alone. The class given is cell-based, Malassezia globosa. How it is done: (§1) The strains originate from the collection of the Institut Pasteur (Fungi collection, Paris France) for M. globosa (IP2387.96) and from the collection of CBS-KNAW for M. restricta (CBS7877). These strains represent and correspond to the majority of strains involved in dandruff. The strains are incubated for 5 days at 30° C. on modified Dixon agar under aerobic conditions. The inoculation suspensions are prepared in sterile distilled water and are concentrated to 10^7 CFU/ml. The determination of the minimum inhibitory concentration (MIC) is performed by micromethod in a liquid medium. 100 μl of liquid culture medium is deposited in each well of a sterile 96-well microplate. 100 μl of the solutions to be tested is deposited in the first well of a line of the plate. Dilutions by a factor of 2 are then carried out for wells 1 to 10. The test suspensions of each microorganism are prepared immediately before use in Tryptone salt. 100 μl is deposited in each well of a second microplate, with the exception of column 11. All of the first plate is inoculated using a Denley multipoint inoculate, from the second microplate. After incubation, the MIC are defined as the largest dilution with the absence of visible growth. Columns 11 and 12 serve respectively as a negative and positive control for growth.
(§2) The products tested are: • ciclopiroxolamine, at 3% (wt/wt) with sterile distilled water, • piroctone olamine at 0.3% (wt/wt) with 10% ethanol, • ketoconazole (positive control) at 1000 μg/ml (wt/wt) with 10% DMSO, • piroctone olamine/ciclopiroxolamine combinations, with respective concentrations of 0.15% and 0.75%.
(§3) The solutions are prepared at the time of the test and used immediately. An ethanol control was produced, solution at 10%.
(§4) The synergistic effect of two products is determined by calculating the synergy index (FIC, Fractional Inhibitory Concentration).
(§5) FIC Index=(MIC product A combined)/(MIC product alone)+(MIC product B combined)/(MIC product B alone).
(§6) The maximum test concentration corresponds to the concentration of the parent solution/2.

The test system of experiment [2] is M. globosa (IP2387.96). Kind of experiment: Minimum fungicide concentration (MFC) by subculturing the MIC microplates on agar medium. The class given is cell-based, Malassezia globosa. The following applies: product alone. The protocol:
as §1, §2
(§7) The determination of the minimum fungicide concentrations (MFC) is carried out by subculturing the MIC microplates on agar medium, using the Denley multipoint inoculator. After incubation, the MFC are defined as the largest dilution with the absence of visible growth. All the tests were carried out in duplicate.

The test system of experiment [3] is M. restricta (CBS7877). In words: Minimum inhibitory concentration (MIC) by micromethod in liquid medium. The class given is cell-based, Malassezia restricta. The protocol: as §1, §2, §3, §4, §5, §6
Experiment [4] relates to M. restricta (CBS7877). Kind of experiment: Minimum fungicide concentration (MFC) by subculturing the MIC microplates on agar medium. In kind it is cell-based, Malassezia restricta. How it is done:
as §1, §2, §7

For experiment [5], the system named is Malassezia globosa. In words: Fungicidal activity, log reduction of colonies after contact time. The class given is cell-based. The following applies: PO 0.3%, CPO 1.5%, ketoconazole 2%, PO/CPO 0.3%/1.5%, 10^7 CFU/ml. How it is done: (§8) The products to be tested alone and combined at the defined concentrations are placed in contact with a suspension of Malassezia containing 10^7 CFU/ml for a contact time of 5 minutes, 15 minutes and 30 minutes. After each contact time, a sample is taken, then diluted and filtered on a cellulose membrane. Each membrane is then deposited on the agar medium (Dixon) and incubated at 30° C. After incubation, the colonies are counted.
(§9) The products tested are: • ciclopiroxolamine, at 1.5% (wt/wt) diluted with sterile distilled water, • piroctone olamine at 0.3% (wt/wt) dissolved in ethanol, then addition of water for injectable preparations (final ethanol concentration of 9%), • ketoconazole (positive control) at 2% (wt/wt) dissolved in DMSO, then addition of water for injectable preparations (final concentration of DMSO 9%). • piroctone olamine/ciclopiroxolamine combinations, with respective concentrations of 0.3% and 1.5%.
(§10) The solutions are prepared at the time of the test and used immediately.

The subject of experiment [6] is Malassezia restricta. The description is as above. In kind it is cell-based. The following applies: PO 0.3%, CPO 1.5%, ketoconazole 2%, PO/CPO 0.3%/1.5%, 10^7 CFU/ml. How it is done: as §8, §9, §10
Setting [7] is: Malassezia globosa, read-out: MIC.
Setting [8] is: Malassezia globosa, read-out: MFC.
Where [9] appears, read: Malassezia restricta, CBS7877, product alone, read-out: MIC.
Where [10] appears, read: Malassezia restricta, CBS7877, product alone, read-out: MFC.

As to `CC(=O)N1CCN(c2ccc(OCC3COC(Cn4ccnc4)(c4ccc(Cl)cc4Cl)O3)cc2)CC1` (centres unmarked) [Keto, ketoconazole], the values for the MIC in experiment [1] (setting [7]) and in experiment [3] (setting [9]) were 0.98 µg/mL and 0.49 µg/mL, respectively. For the same molecule, the MFC is 1.94 µg/mL in experiment [2] (setting [8]) and 0.49 to 0.98 µg/mL in experiment [4] (setting [10]). Moreover, the “Log Reduction” value in experiment [5] (contact time 5 minutes) was 1.47; in experiment [5] (contact time 15 minutes) it was 1.29; in experiment [5] (contact time 30 minutes), 1.19; in experiment [6] (contact time 5 minutes), 0.85; in experiment [6] (contact time 15 minutes), 1.12; in experiment [6] (contact time 30 minutes), 1.09.

As for `Cc1cc(CC(C)CC(C)(C)C)n(O)c(=O)c1.NCCO` (centres unmarked) [PO, piroctone olamine], the MIC was 23 µg/mL in experiment [1]; 2.3 × 10^−3% in experiment [1] (% (wt/wt)); 23 µg/mL in experiment [3] (product alone); 2.3 × 10^−3% in experiment [3] (product alone, % (wt/wt)). In addition, the MFC is 23 µg/mL in experiment [2]; 2.3 × 10^−3% in experiment [2] (% (wt/wt)); 23 µg/mL in experiment [4] (product alone); 2.3 × 10^−3% in experiment [4] (product alone, % (wt/wt)). Further, the “Log Reduction” value in experiment [5] (contact time 5 minutes) was found to be 0.36; in experiment [5] (contact time 15 minutes) it was 0.61; in experiment [5] (contact time 30 minutes) it was 1.24; in experiment [6] (contact time 5 minutes), 1.19; in experiment [6] (contact time 15 minutes) it was 1.28; in experiment [6] (contact time 30 minutes) it was 1.73.

Regarding `Cc1cc(C2CCCCC2)n(O)c(=O)c1` [CPO, ciclopiroxolamine], the MIC is 29 µg/mL in experiment [1] (setting [7]); 2.9 × 10^−3% in experiment [1] (% (wt/wt)); 15 µg/mL in experiment [3] (setting [9]); 1.5 × 10^−3% in experiment [3] (product alone, % (wt/wt)). Besides, the MFC in experiment [2] (setting [8]) is 29 µg/mL; in experiment [2] (% (wt/wt)), 2.9 × 10^−3%; in experiment [4] (setting [10]), 15 µg/mL; in experiment [4] (product alone, % (wt/wt)) it was 1.5 × 10^−3%. For the same molecule, the “Log Reduction” value was 2.45 in experiment [5] (contact time 5 minutes); 3.88 in experiment [5] (contact time 15 minutes); over 4.22 in experiment [5] (contact time 30 minutes); 1.99 in experiment [6] (contact time 5 minutes); 3.3 in experiment [6] (contact time 15 minutes); over 4.17 in experiment [6] (contact time 30 minutes).
